# According to US5288758A, “New urea derivatives, their preparation and their application in therapy” (priority 1991, dated 1994):
# pIC50: −log10 of the molar value.
# Target: acetylcholinesterase (Homo sapiens, UniProt P22303)
# Assay: biochemical
# Settings: method of Ellman et al., Biochem. Pharmacol. 7, 88-95 (1961); read-out: Inhibition of acetylcholinesterase activity, IC50
# acetylcholinesterase, sequence (P22303 32-614): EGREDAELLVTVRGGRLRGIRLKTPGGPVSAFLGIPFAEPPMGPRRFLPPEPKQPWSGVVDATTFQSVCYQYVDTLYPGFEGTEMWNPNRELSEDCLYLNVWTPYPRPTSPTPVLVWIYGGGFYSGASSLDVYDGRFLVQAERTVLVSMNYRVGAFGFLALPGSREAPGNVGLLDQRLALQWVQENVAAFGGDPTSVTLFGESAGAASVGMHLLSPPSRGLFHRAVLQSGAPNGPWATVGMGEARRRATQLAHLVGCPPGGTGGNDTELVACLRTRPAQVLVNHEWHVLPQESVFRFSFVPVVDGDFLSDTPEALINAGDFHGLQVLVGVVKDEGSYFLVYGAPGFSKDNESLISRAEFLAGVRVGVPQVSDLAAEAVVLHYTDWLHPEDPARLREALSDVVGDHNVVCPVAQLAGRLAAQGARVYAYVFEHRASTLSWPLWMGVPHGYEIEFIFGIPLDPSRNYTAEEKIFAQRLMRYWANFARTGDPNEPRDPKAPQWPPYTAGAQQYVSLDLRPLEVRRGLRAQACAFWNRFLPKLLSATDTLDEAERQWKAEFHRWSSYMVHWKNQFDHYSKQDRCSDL
row,Compound,pIC50
1,"CN(CCCCCNC(=S)NC(=O)c1ccccc1)CC1CCCCC1 [Compound 5, 1-Benzoyl-3-[5-(N-cyclohexylmethyl-N-methylamino)pentyl]thiourea]",7.30
2,COc1ccc(C(=O)NC(=S)NCCOCCN(C)Cc2ccccc2)cc1 [Compound 11],7.59
3,CN(CCOCCNC(=S)NC(=O)c1ccc(Cl)cc1)Cc1ccccc1 [Compound 12],7.52
4,CN(CCOCCNC(=S)NC(=O)c1cccc([N+](=O)[O-])c1)Cc1ccccc1 [Compound 13],7.82
5,CN(CCOCCNC(=S)NC(=O)c1ccc(Cl)c(Cl)c1)Cc1ccccc1 [Compound 14],7.26
6,CN(CCOCCNC(=S)NC(=O)c1ccc2ccccc2c1)Cc1ccccc1 [Compound 16],7.00
